A short description of data set [1]: Solubility in D2O by 1H NMR. The settings on record: Me2SO2 internal standard, T = 21 °C. It counts as physicochemical. As to the method: The solubility of the complexes in D2O was assessed using ^1H NMR spectroscopy (see Table 1 and the Experimental Section for details). […] Data from the literature for the related nonfunctionalized complexes [2′,3′]CF3SO3 are compiled in Table 1 for comparison.[11] The octanol–water partition coefficients (Log Pow) were measured using a UV–vis method and fall within the −0.2 to +1.2 range (Table 1). […] For instance, Log Pow values of 1.07 and 0.65 are obtained for the geometric isomers [9]CF3SO3 and [10]CF3SO3, respectively.

Data set [2] in a line: Stability in D2O/DMSO at 37 °C by 1H NMR. It counts as physicochemical. Conditions: for stability (%), total percentage of diiron complexes with a chlorambucil-like group: D2O/DMSO 1/1 v/v; for stability (%), residual percent of complex / stability (%), residual percentage of the complex: D2O/DMSO 2/1 v/v. As to the method: Conversely, [3–7]CF3SO3, containing either {Aryl–OCOAsp} or {Aryl-NHCOAsp} moieties, were stable under the same conditions. […] Complete conversion into the bis-hydroxide [8^2OH]^+ was achieved within 72 h. Similarly, [9,10]CF3SO3 undergo activation of the {C–Cl} bonds to give mixtures of the partially Cl/OH substituted species [9^OH]^+ and [10^OH]^+ and the fully substituted species [9^2OH]^+ and [10^2OH]^+.

Data set [3] relates to Human Ovarian Carcinoma (A2780) cell line. The data set can be described thus: MTT cytotoxicity, A2780. It counts as cell-based. The settings on record: 72 h exposure, MTT, mean ± SD. The text has this:
(§1) Human ovarian carcinoma (A2780 and A2780cisR) cell lines were obtained from the European Collection of Cell Cultures. The Human Embryonic Kidney 293T (HEK 293T) cell line was obtained from the ATCC (Sigma, Buchs, Switzerland). Penicillin–streptomycin, RPMI 1640 GlutaMAX (where RPMI = Roswell Park Memorial Institute), and DMEM GlutaMAX media (where DMEM = Dulbecco’s modified Eagle medium) were obtained from Life Technologies, and fetal bovine serum (FBS) was obtained from Sigma. The cells were cultured in RPMI 1640 GlutaMAX (A2780 and A2780cisR) and DMEM GlutaMAX (HEK 293T) media containing 10% heat-inactivated FBS and 1% penicillin–streptomycin at 37 °C and CO2 (5%). The A2780cisR cell line was routinely treated with cisplatin (2 μM) in the media to maintain cisplatin resistance. The cytotoxicity was determined using the 3-(4,5-dimethyl-2-thiazolyl)-2,5-diphenyl-2H-tetrazolium bromide (MTT) assay.[42] Cells were seeded in flat-bottomed 96-well plates as a suspension in a prepared medium (100 μL aliquots and approximately 4300 cells/well) and preincubated for 24 h. Stock solutions of compounds were prepared in DMSO and were diluted in the medium. The solutions were sequentially diluted to give a final DMSO concentration of 0.5% and a final compound concentration range of 0–200 μM. Cisplatin was tested as a positive (0–100 μM) control. The compounds were placed in the preincubated 96-well plates in 100 μL aliquots, and the plates were incubated for a further 72 h. MTT (20 μL, 5 mg/mL in Dulbecco’s phosphate buffered saline) was placed in the cells, and the plates were incubated for a further 4 h. The culture medium was aspirated, and the purple formazan crystals, formed by the mitochondrial dehydrogenase activity of vital cells, were dissolved in DMSO (100 μL/well). The absorbance of the resulting solutions, directly proportional to the number of surviving cells, was quantified at 590 nm using a SpectroMax M5e multimode microplate reader (using SoftMax Pro software, version 6.2.2). The percentage of surviving cells was calculated from the absorbance of wells corresponding to the untreated control cells. The reported IC50 values are based on the means from two independent experiments, each comprising four tests per concentration level.

Data set [4] is described as follows: Octanol–water partition coefficient (shake-flask, UV–vis). In kind it is physicochemical. Conditions: T = 21 °C. As to the method: The solubility of the complexes in D2O was assessed using ^1H NMR spectroscopy (see Table 1 and the Experimental Section for details). […] Data from the literature for the related nonfunctionalized complexes [2′,3′]CF3SO3 are compiled in Table 1 for comparison.[11] The octanol–water partition coefficients (Log Pow) were measured using a UV–vis method and fall within the −0.2 to +1.2 range (Table 1). […] For instance, Log Pow values of 1.07 and 0.65 are obtained for the geometric isomers [9]CF3SO3 and [10]CF3SO3, respectively. […]
Determination of partition coefficients (Log P ow)
Partition coefficients ( Pow; IUPAC: K D partition constant, 7,8 defined as Pow = corg/caq, where corg and caq are the molar concentrations of the selected compound in the organic and aqueous phases, respectively, were determined by the shake-flask method and UV-Vis measurements. 9 Values of Log Pow for diiron complexes are compiled in Table 2. All the operations were carried out at 21±1 °C. De -ionised water and 1-octanol were mixed and vigorously stirred for 24 hours at room temperature to allow saturation of both phases, then separated by centrifugation and used for the following experiments. A solution of the selected Fe compound in the organic phase (V = 5 mL) was prepared and its UV-Vis spectrum was recorded. An aliquot of the solution (Vorg = 1.5 mL) was then transferred into a test tube and the aqueous phase (Vorg = Vaq = 1.5 mL) was added. The mixture was vigorously stirred for 20 minutes and the resulting emulsion was centrifuged (5000 rpm, 10’). […]
the organic phase was recorded. The procedure was repeated three times for each compound. The partition coefficient was then calculated as PPow = AorgA0,org − Aorg, where A0,org and Aorg are the absorbance values in the organic phase, respectively before and after mixing with the aqueous phase. 9 UV-Vis measurements were carried out using 1 cm PMMA cuvettes. The wavelength of the maximum absorption of each compound was used for UV-Vis quantification.

The test system of data set [5] is Human Ovarian Carcinoma Cisplatin Resistant (A2780cisR) cell line. Kind of data set: MTT cytotoxicity, A2780cisR. In kind it is cell-based. The settings on record: 72 h exposure, mean ± SD.
Source text: as §1

Data set [6] relates to Human Embryonic Kidney 293T (HEK 293T) cell line. The data set can be described thus: MTT cytotoxicity, HEK 293T. It counts as cell-based. The settings on record: 72 h exposure, mean ± SD.
Source text: as §1

Data set [7] has as its target T1, COX-2 enzyme (Homo sapiens, UniProt P35354).
T1 construct: purchased Cayman Chemical Company
T1 sequence (P35354 18-604): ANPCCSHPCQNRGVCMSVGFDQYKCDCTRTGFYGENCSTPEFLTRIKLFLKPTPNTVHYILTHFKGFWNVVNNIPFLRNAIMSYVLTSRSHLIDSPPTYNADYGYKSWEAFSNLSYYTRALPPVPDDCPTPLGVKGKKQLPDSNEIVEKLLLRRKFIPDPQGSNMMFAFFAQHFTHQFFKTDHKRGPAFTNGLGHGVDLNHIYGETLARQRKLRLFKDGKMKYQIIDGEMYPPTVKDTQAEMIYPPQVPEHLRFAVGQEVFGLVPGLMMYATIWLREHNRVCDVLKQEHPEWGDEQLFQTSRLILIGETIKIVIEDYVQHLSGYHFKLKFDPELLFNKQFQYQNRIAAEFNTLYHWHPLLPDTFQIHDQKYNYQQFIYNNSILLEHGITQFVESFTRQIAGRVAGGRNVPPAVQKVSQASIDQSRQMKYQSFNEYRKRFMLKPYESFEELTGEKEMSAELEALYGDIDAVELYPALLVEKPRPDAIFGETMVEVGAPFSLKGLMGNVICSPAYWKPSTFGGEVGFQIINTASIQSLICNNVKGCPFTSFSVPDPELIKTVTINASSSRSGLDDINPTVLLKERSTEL
Kind of data set: COX-2 enzyme inhibition assay (fluorimetric). It counts as biochemical. Conditions: residual enzyme activity, 25 °C, pH 8, mean ± SD. As to the method:
Next, the possible role of the bioactive fragment in the complexes was studied.
The IC50 value was obtained using GraphPad Prism 7 software. All of the inhibitor assays were performed at least in triplicate.

For data set [8], the system named is Human Ovarian Carcinoma (A2780) cell line. Conditions: 72 h exposure, cited from earlier work.
In data set [9] the test system is Human Ovarian Carcinoma Cisplatin Resistant (A2780cisR) cell line. The settings on record: 72 h exposure; ref 22b; cited from earlier work.
Where [10] appears, read: deuterated aqueous medium, 37 °C.

Several values for one entry are separate records, joined by “and”; a condition that tells them apart may be missing. Identical values can stand only once. Like-named read-outs stand apart in the source and are kept apart here.

As a reminder, the IC50 is the concentration at which inhibition is half-maximal. “[Fe2Cp2(CO)(μ-CO){μ-η^1:η^3-Cγ(4-C6H4NHC(=O)(CH2)3C6H4N(CH2CH2Cl)2)CβHCαNMe2}]CF3SO3 [[10]CF3SO3]”: the solubility in data set [1] is reported as <1 × 10^–4 mol L^–1. Further, the “stability (%), total percentage of diiron complexes with a chlorambucil-like group” value in [2] (24 h at 37 °C) is listed as 93%; in data set [2] (72 h at 37 °C) it was 85%. Moreover, the results for the concentration for half-maximal inhibition (IC50) in data set [3], in data set [5] and in data set [6] were 6.4 ± 1.4 µM, 15 ± 5 µM and 30 ± 1 µM, respectively. Besides, the “Log Pow” value in data set [4] is 0.65 and 0.65 ± 0.02.
With “[Fe2Cp2(CO)(μ-CO){μ-η^1:η^3-Cγ(3-C6H4NHC(=O)C6H4OC(=O)Me)CβHCαNMe(Xyl)}]CF3SO3 [[6]CF3SO3]”, the solubility in data set [1] is on record as <1 × 10^–4 mol L^–1. The “stability (%), residual percent of complex” value in [2] (24 h at 37 °C) was 91%. Moreover, the IC50 in [7] was 66 ± 2 µM; in data set [3] it was 6.5 ± 0.8 µM; in data set [5], 7 ± 2 µM; in data set [6], 7.2 ± 0.9 µM. The “Log Pow” value in data set [4] was found to be 0.80 ± 0.02.
For the compound “[Fe2Cp2(CO)2(μ-CO){μ-CNMe(R)}]CF3SO3 (R = Me) [[1a]CF3SO3]”, in data set [8], the IC50 is over 200 µM and the “IC50 A2780” value is “not active”.
Regarding “[Fe2Cp2(CO)(μ-CO){μ-η^1:η^3-Cγ(3-C6H4OC(=O)(CH2)3C6H4N(CH2CH2Cl)2)CβHCαNMe2}]CF3SO3 [[8]CF3SO3]”, the solubility in data set [1] is recorded as <1 × 10^–4 mol L^–1. In addition, the “stability (%), total percentage of diiron complexes with a chlorambucil-like group” value was 84% in data set [2] (24 h at 37 °C) and 77% in data set [2] (72 h at 37 °C). For the same compound, the “stability of the linkage to the bioactive fragment (hydrolysis)” value in [2] (setting [10]) is listed as “did not undergo hydrolysis”. In addition, the “time to complete conversion into the bis-hydroxide (Cl/OH exchange)” value in data set [2] (setting [10]) was at most 72 h. Also, the IC50 in data set [3] is 4.7 ± 0.4 µM; in [5] it was 23 ± 3 µM; in [6], 20 ± 9 µM. Moreover, in data set [4], the “Log Pow” value amounted to 1.2 ± 0.2.
As to “[Fe2Cp2(CO)(μ-CO){μ-η^1:η^3-Cγ(4-C6H4NHC(=O)C6H4OC(=O)Me)CβHCαNMe2}]CF3SO3 [[7]CF3SO3]”, in [2] (24 h at 37 °C), the “stability (%), residual percent of complex” value worked out at 70%. For the same compound, the IC50 was 20 ± 2 µM in [7], 71 ± 14 µM in data set [3], 87 ± 10 µM in [5] and over 100 µM in [6]. Moreover, the “Log Pow” value in data set [4] is recorded as “–0.19 ± 0.01”.
Turning to `N.N.[Cl][Pt][Cl]` [cisplatin, reference compound], the results for the IC50 in data set [3], in data set [5] and in data set [6] were 0.6 ± 0.1 µM, 7.9 ± 0.1 µM and 2.6 ± 0.4 µM, respectively.
As for “[Fe2Cp2(CO)(μ-CO){μ-η^1:η^3-Cγ(3-C6H4OC(=O)C6H4OC(=O)Me)CβHCαNMe2}]CF3SO3 [[3]CF3SO3]”, the “stability (%), residual percent of complex” value in data set [2] (24 h at 37 °C) was 81%. In addition, the “stability (%), residual percentage of the complex” value in data set [2] (72 h at 37 °C) came to 57%. Moreover, the concentration for half-maximal inhibition (IC50) in [7] came out at 71 ± 1 µM; in data set [3], 24 ± 5 µM; in [5], 21 ± 5 µM; in data set [6], 42 ± 6 µM. Also, in [4], the “Log Pow” value came out at 0.24 ± 0.01.
In the case of `O=C(O)CCCc1ccc(N(CCCl)CCCl)cc1` [chlorambucil], the concentration for half-maximal inhibition (IC50) in [9] is 25 ± 4 µM; in data set [8] (ref 22b) it was 5.2 ± 1.6 µM.
Turning to “[Fe2Cp2(CO)2(μ-CO){μ-CNMe(R)}]CF3SO3 (R = Xyl = 2,6-C6H3Me2) [[1b]CF3SO3]”, the half-maximal inhibitory concentration (IC50) in [8] was 9.3 ± 0.7 µM.
As to “[Fe2Cp2(CO)(μ-CO){μ-η^1:η^3-Cγ(CH2OC(=O)C6H4OC(=O)Me)CβHCαNMe(Xyl)}]CF3SO3 [[2]CF3SO3]”, the solubility in data set [1] was <1 × 10^–4 mol L^–1. For the same compound, the “stability (%), residual percent of complex” value in data set [2] (24 h at 37 °C) amounted to 85%. For the same compound, the “stability (%), residual percentage of the complex” value in data set [2] (72 h at 37 °C) is given as 69%. Moreover, the “release of aspirin from the linkage” value in [2] (deuterated aqueous medium, 37 °C, 24 h) was “approximately 20%”. The half-inhibitory concentration (IC50) in [7] was determined as 84 ± 2 µM; in data set [3], 13 ± 2 µM; in data set [5], 14 ± 1 µM; in [6], 9.2 ± 0.5 µM. The “Log Pow” value in data set [4] was 0.40 ± 0.01.
